Laboratory results taken from EP0491441A1, “Fungicidal isoquinoline derivatives” (SHELL INTERNATIONALE RESEARCH MAATSCHAPPIJ B.V., priority 1990, dated 1992).

Experiments:
Type in all cases: in vivo
powdery mildew in wheat [1] = assay: Curative (C) activity against powdery mildew in wheat; details: Triticum aestivum, concentration 400 ppm
Description: (§1) In further tests, the residual (R) and curative (C) activities of various compounds against powdery mildew in barley and wheat was determined at various concentrations of the test compounds.

powdery mildew in barley [2] = assay: Curative (C) activity against powdery mildew in barley; details: Hordeum vulgare, concentration 100 ppm
Description: as §1

powdery mildew in barley [3] = assay: Residual (R) activity against powdery mildew in barley; details: Hordeum vulgare
Description: as §1

powdery mildew in wheat [4] = assay: Residual (R) activity against powdery mildew in wheat; details: Triticum aestivum, concentration 400 ppm
Description: as §1

SMILES: CCCOc1cc2c(cc1OCC)CC[N+]([O-])=C2c1ccccc1[N+](=O)[O-] [Example 7, 1-(2-nitrophenyl)-3,4-dihydro-6-ethoxy-7-propoxyisoquinoline-N-oxide]
- activity at 400 ppm (powdery mildew in wheat [1]): 23%
- activity at 100 ppm (powdery mildew in barley [2]): 100%
- activity at 400 ppm (powdery mildew in barley [3]; concentration 400 ppm): 75%
- activity at 400 ppm (powdery mildew in wheat [4]): 94%

SMILES: CCCOc1cc2c(-c3c(Cl)cccc3Cl)[n+]([O-])ccc2cc1OCC [Example 6, 1-(2,6-Dichlorophenyl)-6-ethoxy-7-propoxyisoquinoline N-oxide]
- activity at 400 ppm (powdery mildew in wheat [1]): 68.5%
- activity at 100 ppm (powdery mildew in barley [2]): 100%
- activity at 100 ppm (powdery mildew in barley [3]; concentration 100 ppm): 100%
- activity at 400 ppm (powdery mildew in wheat [4]): 98.8%
